Square brackets hold non-standard residues; d marks the D form. Ends that are not written are not given here.
Assay: Inhibition of food intake, subcutaneous injection to fasted mice
Type: in vivo, C57BL/6 mice
Conditions: 20 nmoles/kg
Method: Animals: All animal procedures were approved by the British Home Office Animals (Scientific Procedures) Act 1986 (Project License number 70/5516). Male C57BL/6 mice and male Wistar rats were maintained in individual cages under controlled temperature (21-23° C.) with ad libitum access to standard chow (RMI diet, SDS Ltd, Witham, Essex, UK) and to water. The light cycle was 12 hours light and 12 hours dark with ‘dawn’ at 07:00, lights full on at 07:30, ‘dusk’ at 19:00 with lights off at 19:30. These times were fixed in the animal facility, All animals were handled almost daily for on average nine days prior to the first study. During the acclimatization period, mice received two saline injections at least two days apart in order to further acclimatize to the procedure on the study days. It was found in rats that minimising the number of injections provided an optimal response, and so acclimatization injections were not used.
Study protocol: C57BL/6 mice (20-35 g) were injected with the peptide under investigation following a 20-hour fast. Wistar rats were injected following a 24-hour fast. Typically 6 to 10 rodents were used per experimental group. Injections were typically administered at 9:00. A pre-weighed quantity of chow was presented immediately after injection. The remaining food was measured at regular time intervals (e.g. 1, 2, 3, 4, 6, 8, 24, 32 and 48 hours following injection) and food intake calculated.
The feeding effect of the following analogue of oxyntomodulin was investigated: PEPTIDE NO: 355 [SEQ ID NO:355]. The analogue was administered at a dose of […] by subcutaneous injection to a group of fasted mice. A further group was administered saline (control). Mean cumulative food intake over the course of 4 hours is shown in comparison to saline in FIG. 40. […] The food intake suppression continues for the whole 4 hour period; that is to say that the food intake over the 4 hour period is lower than in the saline control.
The feeding effect of the following analogue of oxyntomodulin was investigated: PEPTIDE NO: 130 [SEQ ID NO: 130]. […]

D-His Ala Gln Gly Thr Phe Thr Ser Asp Tyr Ser Lys Tyr Leu Glu Gln Glu Leu Val Lys Tyr Phe Ile Gln Trp Leu Lys Asn Ala Gly Pro Ser Lys Asn Asn Ile Ala ([dH]AQGTFTSDYSKYLEQELVKYFIQWLKNAGPSKNNIA) [PEPTIDE NO: 130]
food intake suppression continues for (24 hours observed): ≥ 24 h | Mean cumulative food intake in comparison to saline control (over 24 hours): potent and long acting suppression of food intake | food intake in comparison to control group treated with native oxyntomodulin (over 24 hours): lower than in the control group treated with native oxyntomodulin

Reference: US8101576B2, “Compounds and their effects on feeding behaviour” (priority 2006, dated 2012)
